# Key:
# [1] = biological target: T1, A1 receptor in DDT1 cells (Mesocricetus auratus, UniProt A0A1U8BVR4); test: cAMP assay (SPA) in DDT1 cells, forskolin-induced cAMP; format: cell-based, hamster; conditions: forskolin 5 μM; for Camp: rolipram 50 μM, 10 min 37° C., normalized to the full agonist CPA
# T1 construct: endogenous in cells; host or cells: DDT1 cells (hamster vas deferens smooth muscle cell line): membranes in A1 and A3, whole cells in A4
# T1 sequence (A0A1U8BVR4 1-326): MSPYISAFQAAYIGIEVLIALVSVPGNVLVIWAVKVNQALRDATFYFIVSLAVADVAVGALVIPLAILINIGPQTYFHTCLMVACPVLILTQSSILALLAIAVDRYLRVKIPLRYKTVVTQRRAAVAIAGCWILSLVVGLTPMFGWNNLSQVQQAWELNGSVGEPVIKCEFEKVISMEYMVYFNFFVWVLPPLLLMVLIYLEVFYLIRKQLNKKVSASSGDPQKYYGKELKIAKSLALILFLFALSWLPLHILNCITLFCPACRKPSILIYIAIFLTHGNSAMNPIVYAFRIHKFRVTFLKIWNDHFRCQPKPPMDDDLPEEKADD
# Protocol: (§1) DDT cells (hamster vas deferens smooth muscle cell line) were grown as monolayers in petri dishes using Dulbecco's Modified Eagle's Medium (DMEM) containing […] amphotericin B, 100 U ml^−1 penicillin G, 0.1 mg ml^−1 streptomycin sulfate and 5% fetal bovine serum in a humidified atmosphere of 95% air and 5% CO2. Cells were subcultured twice weekly by dispersion in Hank's Balanced Salt Solution (HBSS) without the divalent cations and containing 1 mM EDTA. The cells were then seeded in growth medium at a density of 1.2×10^5 cells per plate and experiments were performed 4 days later at approximately one day preconfluence.
# A scintillation proximity assay (SPA) using rabbit antibodies directed at cAMP using an added tracer of adenosine 3′,5′-cyclic phosphoric acid 2′-O-succinyl-3-[^125I]iodotyrosine methyl ester and fluoromicrospheres containing anti-rabbit specific antibodies as described by Amersham Pharmacia Biotech (Biotrak cellular communication assays). Briefly, DDT1 cells were cultured in clear bottomed 96 well microtiter plates with opaque wells at concentrations between 10^4 to 10^6 cells per well in 40 μl of HBSS at 37° C. (5% CO2 and 95% humidity). The partial or full A1 agonists (5 μl) of this invention were incubated at various concentrations with the DDT1 cells in the presence of rolipram (50 μM), and 5 μM forskolin for 10 min at 37° C. The cells were immediately lysed by treatment 5 μl of 10% dodecyltrimethylammonium bromide followed by shaking using microplate shaker. After incubation of the plate for 5 minutes, an immunoreagent solution (150 μl containing equal volumes of tracer, antiserum, and SPA fluorospheres) was added to each well followed by sealing the plate. After 15-20 h at 23° C., the amount of bound [^125I] cAMP to the fluoromicrospheres was determined by counting in a microtitre plate scintillation counter for 2 minutes. Comparison of counts with standard curves generated for cAMP using a similar protocol afforded the cAMP present after cell lysis.
# [2] = biological target: T2, A1 AdoR (Mesocricetus auratus, UniProt A0A1U8BVR4); test: [35S]GTPγS binding assay (A1-agonist stimulated), DDT1 membranes; format: biochemical, hamster; conditions: stimulated [35S]GTPγS binding normalized to the full agonist CPA
# T2 construct: endogenous in cells; host or cells: DDT1 cells (hamster vas deferens smooth muscle cell line): membranes in A1 and A3, whole cells in A4
# T2 sequence (A0A1U8BVR4 1-326): T1 sequence (A0A1U8BVR4 1-326)
# Protocol: as §1
# (§2) Attached cells were washed twice with HBSS (2×10 ml), scraped free of the plate with the aid of a rubber policeman in 5 ml of 50 mM Tris-HCl buffer pH 7.4 at 4° C. and the suspension homogenized for 10 s. The suspension was then centrifuged at 27,000×g for 10 min. The pellet was resuspended in homogenization buffer by vortexing and centrifuged as described above. The final pellet was resuspended in 1 vol of 50 mM Tris-HCl buffer pH 7.4 containing 5 mM MgCl2 for A1 AdoR assays. For the [^35S]GTPγS binding assay the final pellet was resuspended in 50 mM Tris-HCl pH 7.4 containing 5 mM MgCl2, 100 mM NaCl and 1 mM dithiothreitol. This membrane suspension was then placed in liquid nitrogen for 10 min, thawed and used for assays. The protein content was determined with a Bradford™ Assay Kit using bovine serum albumin as standard.
# A1-agonist stimulated [^35S] GTPγS binding was determined by a modification of the method described by Giersckik et al. (1991) and Lorenzen et al. (1993). […] Nonspecific binding was determined by the addition of 10 μM GTPγS. […] Previous reports have shown that agonist stimulated [^35S]GTPγS binding was dependent on the presence of GDP (Gierschik et al., 1991; Lorenzen et al., 1993; Traynor & Nahorski, 1995). […] In saturation experiments, 0.5 nM [^35S]GTPγS was incubated with 0.5-1000 nM GTPγS. At the end of the incubation, each suspension was filtered and the retained radioactivity determined as described above.
# [3] = biological target: T3, A1 receptor (Mesocricetus auratus, UniProt A0A1U8BVR4); test: Competitive binding assay, DDT1 cell membranes, [3H]CCPA; set-up: species or system hamster; conditions: DDT1 membrane prep, agonist [3H]CCPA 2 nM, 23 C, 2 h
# T3 construct: endogenous in cells; host or cells: DDT1 cells (hamster vas deferens smooth muscle cell line): membranes in A1 and A3, whole cells in A4
# T3 sequence (A0A1U8BVR4 1-326): T1 sequence (A0A1U8BVR4 1-326)
# Protocol: as §1, §2
# (§3) Pig striatum were prepared by homogenation in 50 mM Tris buffer (5× volume of tissue mass pH=7.4). After centrifugation at 19,000 rpm for 25 minutes at 4° C., the supernatant was discarded, and the process was repeated twice. Compositions of this invention were assayed to determine their affinity for the A1 receptor in a pig striatum membrane prep or a DDT1 membrane prep. Briefly, 0.2 mg of pig striatal membranes or DDT1 cell membranes were treated with adenosine deaminase and 50 mM Tris buffer (pH=7.4) followed by mixing. To the pig membranes was added 2 μL of serially diluted DMSO stock solution of the compounds of this invention at concentrations ranging from 100 microM to 10 nM. The control received 2 microL of DMSO alone, then the antagonist [^3H] 8-cyclopentylxanthine (CPX) for pig striatum or the agonist [^3H] 2-chloro-6-cyclopentyladenosine (CCPA) for DDT1 membranes in Tris buffer (50 mM, pH of 7.4) was added to achieve a final concentration of 2 nM. After incubation at 23 C for 2 h, then the solutions were filtered using a membrane harvester using multiple washing of the membranes (3×). The filter disks were counted in scintillation cocktail affording the amount of displacement of tritiated CPX or by the competitive binding compositions of this invention. Greater than a 5 point curve was used to generate Ki's and the number of experiments is indicated in the column marked in Table 1, below: […]
# [4] = biological target: T4, A1 receptor (Sus scrofa, UniProt I3LEN5); test: Competitive binding assay, pig striatum membranes, [3H]CPX; conditions: pig striatal membranes, antagonist [3H]CPX 2 nM, 23 C, 2 h
# T4 construct: from tissue; host or cells: pig striatum membranes
# T4 sequence (I3LEN5 1-326): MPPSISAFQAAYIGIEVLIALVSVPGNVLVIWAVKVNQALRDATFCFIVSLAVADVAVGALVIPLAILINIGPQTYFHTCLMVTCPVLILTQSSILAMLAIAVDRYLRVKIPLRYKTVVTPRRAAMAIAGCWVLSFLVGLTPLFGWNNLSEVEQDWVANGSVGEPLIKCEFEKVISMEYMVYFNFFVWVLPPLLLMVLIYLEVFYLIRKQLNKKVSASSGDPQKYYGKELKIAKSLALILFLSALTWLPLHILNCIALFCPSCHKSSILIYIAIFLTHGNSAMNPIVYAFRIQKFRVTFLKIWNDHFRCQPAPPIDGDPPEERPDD
# Protocol: as §3
SMILES,Camp [1] [%],GTP[…]S [2] [%],Ki [3] [nM],Ki [4] [nM],effect on forskolin induced cAMP generation [1]
"O[C@@H]1[C@H](O)[C@@H](CSc2ccc(Cl)cc2)O[C@H]1n1cnc2c(N[C@@H]3CCOC3)ncnc21 [Compound 13, 2-{6-[((3R)oxolan-3-yl)amino]purin-9-yl}(4S,5S,2R,3R)-5-[(4-chlorophenylthio)methyl]oxolane-3,4-diol]",30,69,–,–,–
"COc1ccc(SC[C@H]2O[C@@H](n3cnc4c(N[C@@H]5CCOC5)ncnc43)[C@H](O)[C@@H]2O)cc1 [Compound 12, 2-{6-[((3R)oxolan-3-yl)amino]purin-9-yl}(4S,5S,2R,3R)-5-[(4-Methoxyphenylthio)methyl]oxolane-3,4-diol]",−9,52,820,–,–
"COc1ccccc1SC[C@H]1O[C@@H](n2cnc3c(N[C@@H]4CCOC4)ncnc32)[C@H](O)[C@@H]1O [Compound 17, 2-{6-[((3R)oxolan-3-yl)amino]purin-9-yl}(4S,5S,2R,3R)-5-[(2-Methoxyphenylthio)methyl]oxolane-3,4-diol]",18,52,947,–,–
"O[C@@H]1[C@H](O)[C@@H](CSc2ccc(C(F)(F)F)cc2)O[C@H]1n1cnc2c(N[C@@H]3CCOC3)ncnc21 [Compound 16, 2-{6-[((3R)oxolan-3-yl)amino]purin-9-yl}(4S,5S,2R,3R)-5-[(4-(trifluoromethyl)phenylthio)methyl]oxolane-3,4-diol]",22,31,7700,–,–
"O[C@@H]1[C@H](O)[C@@H](CSc2ccc(F)cc2)O[C@H]1n1cnc2c(N[C@@H]3CCOC3)ncnc21 [Compound 14, 2-{6-[((3R)oxolan-3-yl)amino]purin-9-yl}(4S,5S,2R,3R)-5-[(4-fluorophenylthio)methyl]oxolane-3,4-diol]",47,61,363,–,–
"O[C@@H]1[C@H](O)[C@@H](CSc2ccccc2)O[C@H]1n1cnc2c(N[C@@H]3CCOC3)ncnc21 [Compound 11, 2-{6-[((3R)oxolan-3-yl)amino]purin-9-yl}(4S,5S,2R,3R)-5-(phenylthiomethyl)oxolane-3,4-diol]",–,–,–,44,–
"OC[C@H]1O[C@@H](n2cnc3c(NC4CCCC4)ncnc32)[C@H](O)[C@@H]1O [CPA, N-6-cyclopentyladenosine, reference compound]",107,–,–,–,diminished the amount of forskolin induced cAMP generation back to basal levels

# Further lines, with some results ahead:
Camp [1] [%],GTP[…]S [2] [%],Ki [3] [nM],Ki [4] [nM],SMILES,effect on forskolin induced cAMP generation [1]
–,–,–,188,"CC(C)SC[C@H]1O[C@@H](n2cnc3c(N[C@@H]4CCOC4)ncnc32)[C@H](O)[C@@H]1O [Compound 10, 2-{6-[((3R)oxolan-3-yl)amino]purin-9-yl}(4S,5S,2R,3R)-5-[(Methylethylthio)methyl]oxolane-3,4-diol]",–
22,48,922,–,"Cc1ccc(SC[C@H]2O[C@@H](n3cnc4c(N[C@@H]5CCOC5)ncnc43)[C@H](O)[C@@H]2O)cc1 [Compound 15, 2-{6-[((3R)oxolan-3-yl)amino]purin-9-yl}(4S,5S,2R,3R)-5-[(4-methylphenylthio)methyl]oxolane-3,4-diol]",–
–,–,–,222,"CSC[C@H]1O[C@@H](n2cnc3c(N[C@@H]4CCOC4)ncnc32)[C@H](O)[C@@H]1O [Compound 7, 2-{6-[((3R)oxolan-3-yl)amino]purin-9-yl}(4S,5S,2R,3R)-5-(methylthiomethyl)oxolane-3,4-diol]",–
37,104,–,–,"CCSC[C@H]1O[C@@H](n2cnc3c(N[C@@H]4CCOC4)ncnc32)[C@H](O)[C@@H]1O [Compound 8, 2-{6-[((3R)oxolan-3-yl)amino]purin-9-yl}(4S,5S,2R,3R)-5-[(Ethylthio)methyl]oxolane-3,4-diol]",–

# Source: patent publication US20050054605A1, “Partial or full A1 agonists - N6 heterocyclic 5' thio substituted adenosine derivatives” (priority 1999, published 2005)
